Several values for one entry are separate records, joined by “and”; a condition that tells them apart may be missing. Identical values can stand only once. Like-named read-outs stand apart in the source and are kept apart here.
Key:
[1] = tested on: CYP3A4; conditions: prolonged exposure; human hepatocytes; cited from earlier work
[2] = tested on: CYP3A4; conditions: prolonged exposure; HepG2 cells; cited from earlier work
[3] = target: CYP2E1 (Homo sapiens, UniProt P05181); type: binding
[4] = target: T1, CYP3A4 (Homo sapiens, UniProt P08684); type: binding; conditions: SS(3A4) in the presence of 25 μM ANF
Target sequence in this assay (P08684 2-503 limits assumed): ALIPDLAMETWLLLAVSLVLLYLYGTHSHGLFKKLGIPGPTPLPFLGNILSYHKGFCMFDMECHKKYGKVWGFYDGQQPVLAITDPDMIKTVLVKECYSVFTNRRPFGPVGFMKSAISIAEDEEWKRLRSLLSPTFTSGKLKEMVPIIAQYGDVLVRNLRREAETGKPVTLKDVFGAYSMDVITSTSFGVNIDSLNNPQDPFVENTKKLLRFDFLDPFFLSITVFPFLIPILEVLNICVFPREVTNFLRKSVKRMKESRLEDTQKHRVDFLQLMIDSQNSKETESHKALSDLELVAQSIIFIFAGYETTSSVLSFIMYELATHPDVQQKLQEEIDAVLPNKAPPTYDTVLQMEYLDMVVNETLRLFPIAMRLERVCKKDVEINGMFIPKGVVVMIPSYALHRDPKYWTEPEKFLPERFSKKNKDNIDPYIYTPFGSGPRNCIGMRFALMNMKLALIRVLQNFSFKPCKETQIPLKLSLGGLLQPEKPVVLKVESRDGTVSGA

[5] = target: T1, CYP3A4; experiment: Fluorimetric assay of BQ debenzylation in intact and CYP2E1-enriched HLM
Target sequence in this assay (P08684 whole entry): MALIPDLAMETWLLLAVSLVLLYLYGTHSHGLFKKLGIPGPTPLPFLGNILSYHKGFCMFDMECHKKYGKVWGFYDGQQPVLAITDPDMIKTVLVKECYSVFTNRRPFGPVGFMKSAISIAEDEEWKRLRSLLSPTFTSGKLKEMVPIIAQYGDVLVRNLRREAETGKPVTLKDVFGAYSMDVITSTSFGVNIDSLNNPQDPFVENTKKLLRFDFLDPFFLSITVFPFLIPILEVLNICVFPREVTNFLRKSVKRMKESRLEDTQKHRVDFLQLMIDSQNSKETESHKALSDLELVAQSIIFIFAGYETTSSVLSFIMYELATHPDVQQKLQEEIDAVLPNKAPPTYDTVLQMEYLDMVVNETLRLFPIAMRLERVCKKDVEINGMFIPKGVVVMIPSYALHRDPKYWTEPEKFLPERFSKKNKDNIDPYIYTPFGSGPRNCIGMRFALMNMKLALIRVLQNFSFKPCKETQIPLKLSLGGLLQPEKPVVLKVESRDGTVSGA

[6] = in vivo; cited from earlier work
[7] = tested on: CYP2C19; conditions: cited from earlier work
[8] = target: T1, CYP3A4; experiment: Rate of midazolam hydroxylation by pooled HLM; conditions: 100 μM substrate; for Turnover rate (per metabolizing P450 enzyme): per CYP3A4
Target sequence in this assay (P08684 whole entry): as above

[9] = tested on: CYP1A2; conditions: cited from earlier work
[10] = tested on: CYP3A5; conditions: cited from earlier work
[11] = tested on: CYP2E1; conditions: cited from earlier work
[12] = 25 μM ANF, all four HLM samples

## CCO [ethanol]
[1]
  Concentration of ethanol giving a noticeable elevation in the CYP3A4 content: ≥ 50000 µM
[2]
  Concentration of ethanol giving a noticeable elevation in the CYP3A4 content: ≥ 50000 µM

## O[C@@H](CS)[C@@H](O)CS (racemic) [DTT, dithiothreitol]
[3]
  Kd: 10.4 mM

## O=c1cc(-c2ccccc2)oc2c1ccc1ccccc12 [ANF, 7,8-benzoflavone]
[4]; calculated from [CYP2E1]50%
  (Lipid/CYP2E1)50%: 604 and 604 ± 62
[4]; from Rmax by Eq. 4
  FRET Efficiency: 84 ± 20%
[5]; 25 μM ANF, HLM-A
  Effect of ANF on Vmax of BQ metabolism: no statistically significant effect
[5]; 25 μM ANF, HLM-N1
  Effect of ANF on the maximal rate of BQ metabolism: increased the maximal rate of reaction almost two times
[5]; 25 μM ANF, HLM-N2
  Effect of ANF on Vmax of BQ metabolism: no statistically significant effect
[5]; 25 μM ANF, HLM-N3
  Effect of ANF on the maximal rate of BQ metabolism: over two-fold inhibition
[5]; [12]
  Effect of ANF on S50 values of BQ: considerably decreased the S50 values
  Effect of ANF on homotropic cooperativity observed with BQ: eliminated homotropic cooperativity

## C[C@H]1c2cccc(O)c2C(O)=C2C(=O)[C@]3(O)C(O)=C(C(N)=O)C(=O)[C@@H](N(C)C)[C@@H]3[C@@H](O)[C@@H]21 [doxycyclin]
[6]
  Rate of metabolism under the influence of chronic alcohol exposure: increased rate of metabolism

## CN(C)CCC=C1c2ccccc2CCc2ccccc21 [Amitriptyline]
[7]
  Km: ~14 µM

## Cc1ncc2n1-c1ccc(Cl)cc1C(c1ccccc1F)=NC2 [Midazolam]
[8]; HLM-A
  Turnover rate (per CPR): 11.2 ± 5.3 min⁻¹
  Turnover rate (per metabolizing P450 enzyme): 6.8 ± 3.2 min⁻¹
[8]; HLM-N2
  Turnover rate (per CPR): 7.3 ± 2.1 min⁻¹
  Turnover rate (per metabolizing P450 enzyme): 3.3 ± 0.9 min⁻¹
[8]; HLM-N3
  Turnover rate (per CPR): 8.2 ± 4.0 min⁻¹
  Turnover rate (per metabolizing P450 enzyme): 3.1 ± 1.5 min⁻¹

## c1ccc(COc2ccc3cccnc3c2)cc1 [BQ, 7-benzyloxyquinoline]
[9]
  Turnover number with BQ, times lower than that of CYP3A4: 8.5 times
[10]
  Turnover number with BQ, times lower than that of CYP3A4: 4.3 times
[11]
  Ability of CYP2E1 to metabolize BQ: lacks any potential to metabolize this substrate
[5]; HLM-A+2E1 (1:1 CYP2E1-enriched), +25 μM ANF
  N (Hill coefficient): 0.85 ± 0.26 (0.03)
[5]; HLM-A+2E1 (1:1 CYP2E1-enriched), no effector
  N (Hill coefficient): 1.47 ± 0.30 (0.30)
[5]; HLM-A, +25 μM ANF
  N (Hill coefficient): 0.99 ± 0.20 (0.03)
[5]; HLM-A, no effector
  N (Hill coefficient): 1.02 ± 0.15
[5]; HLM-N1+2E1 (1:1 CYP2E1-enriched), +25 μM ANF
  N (Hill coefficient): 0.87 ± 0.16 (0.02)
[5]; HLM-N1+2E1 (1:1 CYP2E1-enriched), no effector
  N (Hill coefficient): 1.26 ± 0.12 (0.01)
[5]; HLM-N1, +25 μM ANF
  N (Hill coefficient): 0.83 ± 0.12 (<10^−2)
[5]; HLM-N1, no effector
  N (Hill coefficient): 2.24 ± 0.37
[5]; HLM-N2+2E1 (1:1 CYP2E1-enriched), +25 μM ANF
  N (Hill coefficient): 0.86 ± 0.08 (<10^−2)
[5]; HLM-N2+2E1 (1:1 CYP2E1-enriched), no effector
  N (Hill coefficient): 1.13 ± 0.03 (<10^−6)
[5]; HLM-N2, +25 μM ANF
  N (Hill coefficient): 1.02 ± 0.37 (0.01)
[5]; HLM-N2, no effector
  N (Hill coefficient): 1.92 ± 0.02
  Vmax, times lower than that of HLM-A: 2.2 times
[5]; HLM-N3+2E1 (1:1 CYP2E1-enriched), +25 μM ANF
  N (Hill coefficient): 1.02 ± 0.24 (0.07)
[5]; HLM-N3+2E1 (1:1 CYP2E1-enriched), no effector
  N (Hill coefficient): 1.28 ± 0.09 (0.01)
[5]; HLM-N3, +25 μM ANF
  N (Hill coefficient): 1.22 ± 0.30 (0.03)
[5]; HLM-N3, no effector
  N (Hill coefficient): 2.09 ± 0.44
  Vmax, times lower than that of HLM-A: 1.4 times
[5]; all three samples of HLM-N, no effector
  Hill coefficient: 1.9 – 2.2
[5]; no effector
  Vmax of HLM-A relative to HLM-N1: over six times higher

— PMC7856178 (Archives of biochemistry and biophysics, 2020)
